Experimental data published in ChEMBL document CHEMBL1201862, “PubChem BioAssay data set” (2004).
Calls of active or inactive are those of the source. No stated cut-off is given here; in the data, actives have a measured IC50 and inactives only a lower limit.

Biological target: Envelope glycoprotein gp160 (Human immunodeficiency virus 1, UniProt Q6QLK5)
Assay: cell-free HIV fusion peptide-binding blockers – biochemical, uHTS, fluorescence dequenching, […] (AID 1986)

Sequence of Envelope glycoprotein gp160 (Q6QLK5 whole entry, the tested form may be a part): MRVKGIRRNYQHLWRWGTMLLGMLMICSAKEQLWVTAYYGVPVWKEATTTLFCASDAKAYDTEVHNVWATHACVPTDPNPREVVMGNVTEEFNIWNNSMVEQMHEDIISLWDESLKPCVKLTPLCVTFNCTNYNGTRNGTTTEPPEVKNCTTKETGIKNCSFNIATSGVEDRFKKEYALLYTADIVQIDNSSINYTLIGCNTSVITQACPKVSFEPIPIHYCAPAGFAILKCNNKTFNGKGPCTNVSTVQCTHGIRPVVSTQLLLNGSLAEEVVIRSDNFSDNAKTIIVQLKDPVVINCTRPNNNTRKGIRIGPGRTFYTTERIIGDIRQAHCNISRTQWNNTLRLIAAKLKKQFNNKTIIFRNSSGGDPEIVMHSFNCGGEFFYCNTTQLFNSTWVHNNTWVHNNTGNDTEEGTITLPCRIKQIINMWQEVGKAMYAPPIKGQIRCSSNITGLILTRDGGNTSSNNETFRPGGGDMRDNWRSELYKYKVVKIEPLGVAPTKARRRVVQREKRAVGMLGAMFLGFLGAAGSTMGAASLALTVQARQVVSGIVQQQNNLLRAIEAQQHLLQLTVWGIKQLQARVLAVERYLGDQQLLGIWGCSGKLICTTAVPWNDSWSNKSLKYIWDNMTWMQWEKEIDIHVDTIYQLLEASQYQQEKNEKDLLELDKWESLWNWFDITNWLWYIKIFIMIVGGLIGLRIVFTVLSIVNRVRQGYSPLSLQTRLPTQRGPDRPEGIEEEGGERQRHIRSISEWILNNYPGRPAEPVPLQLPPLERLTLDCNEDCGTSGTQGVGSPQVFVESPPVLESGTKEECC

COCCN1C(=O)/C(=C/c2ccc(OCc3ccc(C(=O)O)cc3)c(OC)c2)S/C1=N\c1ccccc1
IC50: 15.1 µM (active)

O=C1NC(=O)/C(=C/c2ccc(-c3cc(C(=O)O)ccc3Cl)o2)S1
IC50: 25.8 µM (active)

CC(C(=O)Nc1ccc(O)c(C(=O)O)c1)N1C(=O)/C(=C/c2cccs2)SC1=S (stereo not drawn)
IC50: 18.8 µM (active)
